Assay results published in patent US4220714A, “Composition for inhibiting adenylate-kinase and its use” (priority 1977, dated 1980).

What was measured:
[1] = test system: CK; settings: AMP at 5 to 10 times the ADP concentration; cited from earlier work
[2] = target: T1, erythrocyte AK (Homo sapiens, UniProt P00568); assay: CK determination in normal sera without and with added erythrocyte AK; format: biochemical; settings: AMP only at 5 millimols per liter
T1 construct: the haemolysate from human erythrocytes; from tissue; host or cells: human erythrocytes (haemolysate)
T1 sequence (P00568 1-194): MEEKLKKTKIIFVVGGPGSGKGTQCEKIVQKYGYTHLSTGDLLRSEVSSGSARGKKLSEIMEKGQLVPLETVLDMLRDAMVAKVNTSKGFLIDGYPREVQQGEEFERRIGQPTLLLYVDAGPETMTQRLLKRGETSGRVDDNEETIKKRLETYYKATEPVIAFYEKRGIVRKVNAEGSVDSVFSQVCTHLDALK
Excerpt: Such samples have been analyzed with the method described herein and with that which uses AMP at 5 millimols per liter.

[3] = test system: adenylate kinase; settings: erythrocyte AK; agent used alone (AMP without fluoride, fluoride without AMP); FIG. 1, 2
Description: Normal and abnormal sera (from myocardial infarct) and the haemolysate from human erythrocytes were used as sources of CK and of AK.
The AK activity was determined according to the method by Szasz et al. (Clin. Chem., 22, 1806, (1976)). […] A spectrophotometer, Beckman-25 with basin-supporting cradle and thermostat, was used. The reaction temperature for determining both AK and CK was 37° C.

[4] = test system: creatine kinase from serum; assay: Creatine kinase (CK) activity from serum, coupled HK/G-6-PD reaction at 340 nm; format: biochemical, human; settings: FIG. 3
Excerpt: Each value represent the average of five independent readings.
All the CK activities were corrected by allowing for the AK activity.
The same samples were used both for AMP and the fluoride. The ordinates report the percentage relative to the inhibition of the creatine kinase and the abscissae indicate the concentrations of AMP, or fluoride, in millimols per liter, in FIG. 3.

Row | excess of CK values of samples with erythrocyte AK over normal samples [2] | difference in CK activity between normal samples and samples with added erythrocyte AK ([2]; P less than 0.01) | inhibition of CK activity ([4]; AMP at 20 millimols per liter) | SMILES | inhibition of the activity of the CK [1] | concentration at which 95% of inhibition of AK is attained [3] | inhibition of CK activity ([4]; fluoride at 25 millimols per liter) [%]
1 | about 50% | most significant difference | more than 10% | Nc1ncnc2c1ncn2[C@@H]1O[C@H](COP(=O)(O)O)[C@@H](O)[C@H]1O [AMP, adenosine-5'-monophosphate] | slightly inhibits | more than 20 millimols per liter | –
2 | – | – | – | [F-].[K+] [fluoride, potassium fluoride] | – | 25 millimols per liter | ≥ 4
